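96-well plates; 48 h exposure; 5 concentrations. Endpoints by linear interpolation between flanking doses. Not reached: highest tested concentration assigned. TGI: total growth inhibition.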
Columns and labels:
Assay in all cases: inhibition of tumour cell growth, NCI panel, 48 h
A549 NSCLC = system: A549 NSCLC
EKVX NSCLC = system: EKVX NSCLC
IGROV1 ovarian = system: IGROV1 ovarian
KM12 colon = system: KM12 colon
PC-3 prostate = system: PC-3 prostate
RPMI-8226 leukemia = system: RPMI-8226 leukemia
SK-MEL-5 melanoma = system: SK-MEL-5 melanoma
SK-OV-3 ovarian = system: SK-OV-3 ovarian
SN12C renal = system: SN12C renal
SNB-75 CNS = system: SNB-75 CNS
UACC-62 melanoma = system: UACC-62 melanoma
A498 renal = system: A498 renal

SMILES	TGI (A549 NSCLC) [µM]	TGI (EKVX NSCLC) [µM]	TGI (IGROV1 ovarian) [µM]	TGI (KM12 colon) [µM]	TGI (PC-3 prostate) [µM]	TGI (RPMI-8226 leukemia) [µM]	TGI (SK-MEL-5 melanoma) [µM]	TGI (SK-OV-3 ovarian) [µM]	TGI (SN12C renal) [µM]	TGI (SNB-75 CNS) [µM]	TGI (UACC-62 melanoma) [µM]	TGI (A498 renal) [µM]
Cc1cc(S(=O)(=O)NC(=NCCc2ccccc2)NN)c(S)cc1Cl	> 100	> 100	> 100	66.7	> 100	> 100	37.9	53.7	> 100	69.7	40	–
CCCCC1(O)CC2CC1C(C)C2(C)C (stereo not drawn)	> 100	> 100	> 100	> 100	> 100	> 100	> 100	> 100	> 100	> 100	> 100	–
C/C(=N/O)c1sc(-c2nc(C)c(/C(C)=N\O)s2)nc1C	> 100	> 100	> 100	–	–	> 100	> 100	> 100	> 100	> 100	> 100	> 100
COc1ccc(/C=C2\CCC(CCN3CCOCC3)C2=O)cc1 (stereo not drawn)	> 100	> 100	> 100	> 100	–	> 100	> 100	–	> 100	> 100	> 100	> 100
COC12OCCN(C)C1=CC(=O)C1(C)N=NCC12 (stereo not drawn)	> 100	> 100	> 100	> 100	–	> 100	> 100	> 100	> 100	> 100	> 100	> 100
CCCCCCCCCCCCC(Br)C(C)=O (stereo not drawn)	> 100	> 100	> 100	> 100	–	–	> 100	> 100	> 100	–	> 100	> 100
O=C(CC1(O)C(=O)Nc2c(Cl)cc(Cl)cc21)c1ccc(F)cc1 (stereo not drawn)	> 100	> 100	67.6	> 100	–	61.4	–	> 100	> 100	63.8	> 100	–
CC1=CC(=O)N(n2c(-c3ccccc3)n[nH]c2=O)C1=O	> 100	> 100	> 100	> 100	> 100	> 100	> 100	> 100	> 100	> 100	> 100	–
CC1=C(C(=O)CC(=O)C(=O)Nc2ccc(C)c(C)c2)Sc2ccccc2N1	> 100	> 100	> 100	> 100	–	> 100	> 100	> 100	> 100	> 100	> 100	> 100
CC(=O)n1[nH]c(=O)n(-c2ccccc2)c1=O	> 100	> 100	> 100	> 100	> 100	> 100	> 100	> 100	> 100	–	> 100	–
COc1ccc2c(c1)[n+]([O-])c(/C(C)=N/NC(=O)c1ccccc1O)c(C)[n+]2[O-]	> 100	> 100	> 100	> 100	–	> 100	> 100	> 100	> 100	–	> 100	–
CC(C)OP(=O)(OC(C)C)C(=NCCN=C(NNc1ccccc1[N+](=O)[O-])P(=O)(OC(C)C)OC(C)C)NNc1ccccc1[N+](=O)[O-]	> 100	> 100	82.7	> 100	–	> 100	–	–	> 100	> 100	40.6	> 100
NC(N)=NS(=O)(=O)c1ccc(NC(=O)c2cccc3c(N)c4ccccc4nc23)cc1	> 100	> 100	> 100	> 100	–	> 100	> 100	> 100	> 100	> 100	> 100	> 100
Cc1ccc(C(=O)Oc2ccc(/C=C3\CCC/C(=C\c4ccc(OC(=O)c5ccc(C)cc5)cc4)C3=O)cc2)cc1	> 100	> 100	> 100	> 100	> 100	> 100	> 100	–	> 100	> 100	> 100	–
Cc1ccc(Sc2ccccc2N)cc1	> 100	> 100	> 100	> 100	–	53.4	45.5	> 100	> 100	> 100	> 100	> 100
O=C(O)CCN(CCCN(CCC(=O)O)CCC(=O)O)CCC(=O)O	> 100	> 100	> 100	> 100	–	> 100	> 100	> 100	> 100	> 100	> 100	> 100
Cc1nc2c3c(ccc2[nH]c1=O)C(=O)c1ccccc1C3=O	> 100	> 100	> 100	> 100	–	–	> 100	> 100	> 100	87	> 100	> 100
CN(/N=C\c1ccnc2ccccc12)c1ccccc1	53.1	91.2	> 100	37.4	–	> 100	31.2	66	> 100	94.9	37.2	54.6
COc1ccc(/C=C/C(=O)c2sc(-c3cccnc3)nc2C)cc1	> 100	> 100	> 100	44.5	–	26.2	> 100	> 100	> 100	> 100	> 100	> 100
CCOC(=O)N/N=C(\CC)OCC	> 100	> 100	> 100	> 100	> 100	–	> 100	> 100	> 100	> 100	> 100	–
O=C(Cc1nc2ccc([N+](=O)[O-])cc2[nH]c1=O)C(=O)Nc1ccccc1[N+](=O)[O-]	> 100	> 100	> 100	> 100	–	–	> 100	> 100	–	> 100	> 100	> 100

SMILES	TGI (A549 NSCLC) [µM]	TGI (EKVX NSCLC) [µM]	TGI (IGROV1 ovarian) [µM]	TGI (KM12 colon) [µM]	TGI (PC-3 prostate) [µM]	TGI (RPMI-8226 leukemia) [µM]	TGI (SK-MEL-5 melanoma) [µM]	TGI (SK-OV-3 ovarian) [µM]	TGI (SN12C renal) [µM]	TGI (SNB-75 CNS) [µM]	TGI (UACC-62 melanoma) [µM]	TGI (A498 renal) [µM]
COc1ccc2c(c1OC)C(=O)N/C2=C\c1c(CCN(C)C)cc2c(c1OC)OCO2	> 100	> 100	> 100	> 100	> 100	> 100	> 100	> 100	> 100	> 100	–	–
CC(C)c1ccc(/C=C/c2cc(C(=O)NNC(=O)NC3CCCCC3)nc(=S)[nH]2)cc1	> 100	> 100	> 100	> 100	–	> 100	> 100	> 100	> 100	> 100	> 100	> 100
CCOC(=O)c1sc2nc1CSc1sc(=S)sc1SCc1nc(sc1C(=O)OCC)-c1nc(c(C(=O)OCC)s1)CSc1sc(=S)sc1SCc1nc-2sc1C(=O)OCC	> 10	> 10	> 10	> 10	> 10	> 10	> 10	> 10	> 10	> 10	> 10	–
O=C(O)c1ccc([C@@H]2C(=O)N(O)[C@@H]3C=CC[C@@H]32)cc1	> 100	> 100	> 100	> 100	–	> 100	> 100	> 100	> 100	> 100	> 100	–
O=C(O)c1c2c(cc3c(=O)cc(-c4ccccc4)oc13)CCCC2	> 100	> 100	> 100	> 100	–	> 100	> 100	> 100	> 100	> 100	> 100	> 100
O=[N+]([O-])C=C1c2ccccc2-c2ccccc21	42.8	37.1	–	31.7	–	5.5	–	–	35.7	40.7	–	34.6
CC(=O)NNc1nc(C)c(C(=O)/C=C/c2ccc(Cl)c(Cl)c2)s1	> 100	> 100	> 100	> 100	–	> 100	> 100	> 100	> 100	> 100	> 100	> 100
CC(C)C(Sc1nc(-c2ccccc2)c(-c2ccccc2)[nH]1)c1n[nH]c(=S)n1-c1ccccc1 (stereo not drawn)	> 100	65.4	69.2	30.5	–	76	31.5	> 100	> 100	> 100	25.3	> 100
CCOC(=O)C1SC(=Nc2ccc(Cl)cc2Cl)N=C1C (stereo not drawn)	> 100	> 100	> 100	> 100	–	–	> 100	–	> 100	82	> 100	> 100
CCN(CC)Cc1cc(Nc2ccnc3ccc4nn(C)nc4c23)ccc1O	80	–	99	25.9	–	> 100	29.9	57.7	86	26.1	27.4	–
Cc1ccccc1Nc1nc(NNC(=O)Cc2ccccc2)nc(NNC(=O)c2ccncc2)n1	–	> 10	> 10	> 10	–	> 10	–	> 10	> 10	> 10	> 10	–
COc1cc(C2c3cc4c(cc3OC(NCCO)C2C)OCO4)cc(OC)c1O (stereo not drawn)	> 100	–	> 100	> 100	> 100	19	56.5	–	> 100	77.3	> 100	–
Cc1ccc(-c2nnc3s/c(=C\c4ccc(N(C)C)cc4)c(=O)n23)cc1	> 100	> 100	> 100	> 100	–	> 100	> 100	> 100	> 100	> 100	> 100	> 100
O=C1C(c2ccccc2)=C(c2ccccc2)C(c2ccc(Sc3ccc(C4=C(c5ccccc5)C(=O)C(c5ccccc5)=C4c4ccccc4)cc3)cc2)=C1c1ccccc1	> 100	> 100	> 100	> 100	–	> 100	> 100	> 100	> 100	76.5	> 100	> 100
NC(CCCCNCc1ccccc1)C(=O)O (stereo not drawn)	> 100	> 100	> 100	> 100	–	> 100	> 100	> 100	> 100	> 100	> 100	> 100
c1ccc2c(CNCCCCCCCCNCc3cccc4ccccc34)cccc2c1	5.41	18.8	16.2	3.24	–	3.87	3.32	30.9	19.2	3.35	3.24	28.4
COc1ccccc1NC(=O)CC(=O)N1N=C(c2ccccc2)C(N=Nc2ccc(Cl)cc2)C1=O (stereo not drawn)	> 100	> 100	> 100	> 100	–	> 100	42	51.8	> 100	55	89.7	35.2
O=C(O)C12CCC(CC1=O)C2 (stereo not drawn)	> 100	> 100	> 100	> 100	> 100	> 100	> 100	> 100	> 100	> 100	> 100	–
COc1cc(CNc2cnc3ccc(N)cc3n2)cc(OC)c1OC	> 100	> 100	> 100	> 100	–	> 100	> 100	> 100	> 100	> 100	> 100	> 100
COC(=O)C(=O)C(/C(=N/N)C(=O)Nc1ccccc1C(N)=O)c1nc2ccc([N+](=O)[O-])cc2[nH]c1=O (stereo not drawn)	> 100	> 100	> 100	> 100	–	> 100	> 100	–	> 100	–	> 100	> 100

— PubChem BioAssay (NCI)
